Data on 5 compounds can be found in PMC2811219 (The Journal of infectious diseases, 2010).

The subject of data set [1] is HIV-1. The data set can be described thus: Anti-HIV-1 activity in CEM cell cultures. Type of data set: cell-based. Particulars: for EC50: read-out: EC50 (CEM), effective concentration that inhibits 50% of HIV-1 replication, CEM cells.
Data set [2] deals with HIV-2ROD. The data set can be described thus: Anti-HIV-2 activity in CEM cells. Type of data set: cell-based. Particulars: HIV-2ROD-infected CEM cells; data not shown.
Data set [3] can be described thus: Viability assay in MT-4 cell cultures. Type of data set: cell-based, human. To be noted: human, MT-4 cells.
Data set [4] in a line: in vitro. Format: cell-based, human. To be noted: human.
Data set [5] deals with HIV-1LAI.04. The data set can be described thus: Anti-HIV-1 activity in MT-4 cell cultures. To be noted: MT-4 cells; for EC50: read-out: EC50 (MT-4), effective concentration that inhibits 50% of HIV-1 replication. Type of data set: cell-based.
The subject of data set [6] is CEM cells. Briefly: in vitro. Format: cell-based, human.
In data set [7] the test system is MT-4 cells. The data set can be described thus: MT-4 cell growth / proliferation. Format: cell-based, human. Particulars: read-out: IC50 (MT-4), concentration that inhibit cell growth by 50%.
The test system of data set [8] is CEM cells. Briefly: CEM cell growth. To be noted: read-out: IC50 (CEM), concentration that inhibit cell growth by 50%. Type of data set: cell-based, human.
In data set [9] the test system is HIV-1 NL4.3 (X4). The data set can be described thus: p24 production in virus-infected PBMC, HIV-1 NL4.3. Format: cell-based. Particulars: read-out: EC50, NL4.3.
The test system of data set [10] is HIV-1 BaL (R5). Briefly: p24 production in virus-infected PBMC, HIV-1 BaL. Type of data set: cell-based. To be noted: read-out: EC50, BaL.
For data set [11], the system named is HIV-1 UG275, R5 (clade A). The data set can be described thus: p24 production in virus-infected PBMC, HIV-1 UG275. Particulars: read-out: EC50, UG275. Type of data set: cell-based.
Data set [12] deals with HIV-1 US 3, R5 (clade B). The data set can be described thus: p24 production in virus-infected PBMC, HIV-1 US 3. Format: cell-based. Particulars: read-out: EC50, US 3.
The subject of data set [13] is HIV-1 ETH 2220, R5 (clade C). Briefly: p24 production in virus-infected PBMC, HIV-1 ETH 2220. Type of data set: cell-based. To be noted: read-out: EC50, ETH 2220.
Data set [14] deals with HIV-1 UG 270, X4 (clade D). Briefly: p24 production in virus-infected PBMC, HIV-1 UG 270. Type of data set: cell-based. To be noted: read-out: EC50, UG 270.
Data set [15] relates to HIV-1 ID12, R5 (clade A/E). The data set can be described thus: p24 production in virus-infected PBMC, HIV-1 ID12. Particulars: read-out: EC50, ID12. Format: cell-based.
The subject of data set [16] is PBMC. Briefly: PBMC MTS viability staining. Format: cell-based, human.
The subject of data set [17] is HIV-1BaL. Briefly: HIV-1 replication in human cervicovaginal tissue ex vivo. Format: cell-based.
The subject of data set [18] is HSV-2 strain G. The data set can be described thus: HSV-2 replication in human tonsillar tissue. Type of data set: cell-based. Particulars: 1μM, day 12 post infection, n=4.
For data set [19], the system named is clinical ACV-resistant HSV-2 isolate. The data set can be described thus: ACV-resistant HSV-2 replication in human tonsillar tissue. Format: cell-based. To be noted: variant without functional thymidine kinase, n=2.
For data set [20], the system named is HIV-1LAI.04. Briefly: HIV-1 replication in HIV-1/HSV-2 coinfected tonsillar tissue. Type of data set: cell-based. Particulars: 1μM, n=5.
Data set [21] has as its system HSV-2 (G). The data set can be described thus: HSV-2 replication in HIV-1/HSV-2 coinfected tonsillar tissue. To be noted: 1μM, n=5. Format: cell-based.
Data set [22] concerns MT-4 cells. The data set can be described thus: Viability assay in MT-4 cell cultures. Format: cell-based, human.
The test system of data set [23] is HIV-1LAI.04. Briefly: HIV-1 replication in human tonsillar tissue ex vivo. Format: cell-based.
Data set [24] concerns HIV-1LAI.04. Briefly: Flow-cytometry of HIV-infected. Type of data set: cell-based. Particulars: tonsillar tissue, day 12 post infection; control 11.71 ± 3.87%; n=4.
For data set [25], the system named is human tonsillar tissue T cells. Type of data set: cell-based.

Where two headings read alike, the source gives them in different places.

As to `Nc1nc2c(ncn2COCCO)c(=O)[nH]1` [ACV, acyclovir, reference compound], the “suppression of viral replication” value in data set [1] (HIV-1IIIB-infected CEM cells, data not shown) is on record as “did not efficiently suppress viral replication”; in [2] it was “did not efficiently suppress viral replication”. The CC50 in data set [3] and in [4] was more than 150 µM in each case.

Consider `C[C@H](NP(=O)(OCCOCn1cnc2c(=O)[nH]c(N)nc21)Oc1ccccc1)C(=O)OCc1ccccc1` (stereo partly shown) [Cf2648], for which the “SI, selective index or ratio of CC50 (MT-4)/EC50” value (“SI, selective index or ratio” below) in [5] is on record as more than 26. Moreover, the EC50 stood at 5.7 ± 1.6 µM in data set [5]; 6.4 ± 5.8 µM in data set [1]; 13 ± 3.8 µM in data set [9]; 6.6 ± 1.4 µM in data set [10]; 25 ± 10 µM in data set [11]; 28 ± 12 µM in [12]. In addition, the values for the EC50 in data set [13], in data set [14] and in [15] were 19 ± 14 µM, 55 ± 40 µM and 16 ± 15 µM, respectively. The CC50 in data set [6] was more than 150 µM; in data set [16] (read-out: CC50, 50% cytostatic concentration, PBMC, MTS viability staining method) it was 319 µM. Besides, the IC50 in data set [7] was 34 ± 11 µM; in data set [8] it was 33 ± 7.1 µM. Moreover, the “inhibition of HIV-1 replication, drug removed on day 3 post-infection” value in data set [17] (cervicovaginal tissue, 1μM, not replenished, n=4) stood at 57.1 ± 16.0%. Further, the “inhibition of HIV replication, drug replenished at each medium change” value in data set [17] (cervicovaginal tissue, 1μM, treated overnight then infected with HIV-1BaL, n=2) is 100%. Besides, the “inhibition of HIV replication on day 12 post-infection, 3-day incubation followed by drug removal” value in data set [17] (cervicovaginal tissue, 5μM, n=3) was 90.3 ± 9.2%. Further, the “suppression of HSV-2 replication” value in data set [18] is on record as 99.6 ± 0.3%. Moreover, in data set [19], the “inhibition of replication of ACV-resistant HSV-2 variant” value turned out to be 94.9 ± 5.1%. Besides, the “inhibition of HIV replication in HIV-1/HSV-2 coinfected lymphoid tissue” value in [20] was determined as 81.1 ± 5.9%. The “inhibition of HSV-2 replication in HIV-1/HSV-2 coinfected lymphoid tissue” value in [21] amounted to 99.6 ± 0.2%.

In the case of `COC(=O)[C@H](C)NP(=O)(OCCOCn1cnc2c(=O)[nH]c(N)nc21)Oc1cccc2ccccc12` (stereo partly shown) [Cf2649], the “SI, selective index or ratio” value in [5] is more than 32. Also, the EC50 in data set [5] was 4.7 ± 2.1 µM; in data set [9], 11 ± 3.1 µM; in data set [10] it was 5.2 ± 2.4 µM; in data set [11], 16 ± 11 µM; in data set [12], 4.9 ± 6.1 µM; in [13], 6.8 ± 3.9 µM. Besides, the EC50 in [14] is 10 ± 12 µM; in data set [15] it was 53 ± 4.4 µM. The CC50 was more than 150 µM in [22], more than 150 µM in [6] and 352 µM in [16]. Further, the IC50 in data set [7] was determined as 19 ± 3.2 µM; in [8] it was 57 ± 45 µM. The “suppression of HIV replication in tonsillar tissue” value in [23] (1 μM) was “completely suppresses HIV replication”. Further, the “inhibition of HIV-1 replication, treatment started 2 days post-infection” value in data set [23] (tonsillar tissue, 1μM, n=3) is 94.4 ± 5.5%. For the same compound, the “inhibition of HIV-1 replication, treatment started 4 days post-infection” value in data set [23] (tonsillar tissue, 1μM, n=3) stood at 90.2 ± 9.8%. For the same compound, in [23] (tonsillar tissue, 1μM, n=3), the “inhibition of HIV-1 replication, treatment started 6 days post-infection” value is reported as 54.1 ± 13.5%. The “inhibition of HIV-1 replication, treatment started simultaneously with infection” value in data set [23] (tonsillar tissue, 1μM, n=3) is listed as 96.9 ± 3%. In addition, the “fraction of CD8- T cells HIV-infected (p24+)” value in [24] is on record as 3.16 ± 1.63%. Also, the “suppression of HIV-1BAL replication in cervicovaginal tissue” value in [17] (1 μM for 12 days, relative to donor-matched infected tissues, n=4) came to 75.8 ± 10.4%.

`CCOC(=O)[C@H](C)NP(=O)(OCCOCn1cnc2c(=O)[nH]c(N)nc21)Oc1cccc2ccccc12` (stereo partly shown) [Cf2676]: in data set [5], the “SI, selective index or ratio” value was more than 88. The EC50 in data set [5] came to 1.7 ± 0.8 µM; in data set [1], 12 ± 9.8 µM. Further, the CC50 in data set [22] and in data set [6] was more than 150 µM in each case. For the same compound, the IC50 in data set [7] amounted to 12 ± 5.3 µM; in data set [8] it was 32 ± 7.8 µM.

With `CC(C)OC(=O)[C@H](C)NP(=O)(OCCOCn1cnc2c(=O)[nH]c(N)nc21)Oc1cccc2ccccc12` (stereo partly shown) [Cf2681], in data set [5], the “SI, selective index or ratio” value is more than 28. The EC50 in data set [5] turned out to be 5.4 µM; in data set [1] it was 6.2 ± 5.4 µM. In addition, the CC50 in data set [22] and in data set [6] was more than 150 µM each time. In addition, the values for the IC50 in [7] and in data set [8] were 73 µM and 36 ± 15 µM, respectively. In addition, the “effect on numbers of CD4+ T cells and subsets in treated tissues” value in data set [25] is “did not affect the numbers of these cells”.
